According to patent US20210188897A1, “NEUROACTIVE STEROIDS AND COMPOSITIONS AND METHODS THEREOF” (Sparx Therapeutics, Inc., priority 2019, published 2021):
Where two headings read alike, the source gives them in different places.

Columns and labels:
[1] = molecular target: T1, α1β2γ2 GABAA receptors (Homo sapiens, UniProt P14867+P47870); experiment: GABAAR modulator FLIPR assay (membrane potential), α1β2γ2; format: cell-based
T1 construct: expressed in transfected cells; host or cells: 293T cells (ATCC-CRL-1573)
T1 sequence (P18507 40-475 partner, one chain of several): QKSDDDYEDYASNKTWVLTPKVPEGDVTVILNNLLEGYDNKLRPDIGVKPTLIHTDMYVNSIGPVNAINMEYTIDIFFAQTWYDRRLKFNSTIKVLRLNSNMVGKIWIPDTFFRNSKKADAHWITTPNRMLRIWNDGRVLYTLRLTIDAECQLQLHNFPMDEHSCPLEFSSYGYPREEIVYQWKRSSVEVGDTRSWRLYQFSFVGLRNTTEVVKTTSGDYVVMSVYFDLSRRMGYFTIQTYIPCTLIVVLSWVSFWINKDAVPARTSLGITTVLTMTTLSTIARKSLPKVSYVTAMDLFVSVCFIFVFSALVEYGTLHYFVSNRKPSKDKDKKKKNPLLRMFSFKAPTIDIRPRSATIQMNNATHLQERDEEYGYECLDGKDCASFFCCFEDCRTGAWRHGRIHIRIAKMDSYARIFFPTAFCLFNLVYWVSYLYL
Protocol: (§1) 293T cells (ATCC-CRL-1573) were applied for transient expression of α1β2γ2 or α1β2δ GABAA receptors. Cells were plated in a 96 well plate with a confluence of about 70%-80% and cultured overnight in complete medium without antibiotics. The α1β2γ2 or α1β2δ subunits were transfected via the lipofectamine method. The FLIPR assay was developed to quantitatively assess the compounds' PAM activity in α1β2γ2 and α1β2δ GABAA receptors. The FLIPR assays were conducted 48 h post-transfection. The FLIPR reagents were purchased from Molecular Devices Corporation (Membrane potential red kit, Catalog number R8126). The FMP-Red-Dye was reconstituted to 1× assay buffer. Growth medium was removed from the wells and cells were loaded with 100 μL FMP-Red-Due solution for 30 minutes in the dark at r.t. After dye loading, each plate was transferred to the FLIPR Tetra Station: the dye was excited at 510-545 nm, and the fluorescence signals were recorded at 565-625 nm. Baseline recordings were acquired for 1 minute. FMP-Red-Dye is a slow-response, potential sensitive probe and the maximal response is usually seen within 2 minutes after triggering cellular depolarization or hyperpolarization. After baseline recording, the different doses of compound solutions were firstly added on cells and the fluorescent signals were recorded for 5 minutes. Then the cells were followed by a second addition with ligand GABA solution and recorded for another 3.5 minutes. Cell responses were calculated as ΔF=Fmax−Fmin, where Fmax was the maximum response in arbitrary fluorescence units, and Fmin was the baseline arbitrary fluorescence unit value.

[2] = molecular target: T2, α1β2δ GABAA receptors (Homo sapiens, UniProt P14867+P47870); experiment: GABAAR modulator FLIPR assay (membrane potential), α1β2δ; format: cell-based
T2 construct: expressed in transfected cells; host or cells: 293T cells (ATCC-CRL-1573)
T2 sequence (P14867 28-456): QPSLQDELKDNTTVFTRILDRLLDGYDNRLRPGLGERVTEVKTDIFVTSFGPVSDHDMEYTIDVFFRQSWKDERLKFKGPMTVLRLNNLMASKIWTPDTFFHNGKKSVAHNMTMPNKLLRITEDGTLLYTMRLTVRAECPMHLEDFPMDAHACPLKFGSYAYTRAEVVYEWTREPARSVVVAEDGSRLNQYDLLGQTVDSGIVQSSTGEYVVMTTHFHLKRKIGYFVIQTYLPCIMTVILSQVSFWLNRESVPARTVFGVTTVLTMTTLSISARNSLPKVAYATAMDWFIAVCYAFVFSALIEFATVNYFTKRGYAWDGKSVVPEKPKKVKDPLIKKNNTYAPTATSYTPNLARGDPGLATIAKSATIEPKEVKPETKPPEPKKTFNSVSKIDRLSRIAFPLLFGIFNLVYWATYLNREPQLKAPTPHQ
T2 sequence (P47870 25-512 limits assumed): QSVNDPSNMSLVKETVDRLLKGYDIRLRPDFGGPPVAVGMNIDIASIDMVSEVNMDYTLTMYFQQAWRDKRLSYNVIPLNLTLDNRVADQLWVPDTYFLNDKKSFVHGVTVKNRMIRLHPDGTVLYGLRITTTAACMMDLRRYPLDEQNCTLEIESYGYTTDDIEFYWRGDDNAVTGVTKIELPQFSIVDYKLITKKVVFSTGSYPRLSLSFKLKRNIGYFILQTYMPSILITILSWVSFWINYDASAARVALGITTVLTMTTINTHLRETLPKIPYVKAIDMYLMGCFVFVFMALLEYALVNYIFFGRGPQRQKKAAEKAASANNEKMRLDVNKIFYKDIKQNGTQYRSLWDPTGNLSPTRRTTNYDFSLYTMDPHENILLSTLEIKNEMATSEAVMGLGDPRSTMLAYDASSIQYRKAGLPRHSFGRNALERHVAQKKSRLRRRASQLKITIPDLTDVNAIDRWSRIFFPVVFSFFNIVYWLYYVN
T2 sequence (O14764 17-452 partner limits assumed): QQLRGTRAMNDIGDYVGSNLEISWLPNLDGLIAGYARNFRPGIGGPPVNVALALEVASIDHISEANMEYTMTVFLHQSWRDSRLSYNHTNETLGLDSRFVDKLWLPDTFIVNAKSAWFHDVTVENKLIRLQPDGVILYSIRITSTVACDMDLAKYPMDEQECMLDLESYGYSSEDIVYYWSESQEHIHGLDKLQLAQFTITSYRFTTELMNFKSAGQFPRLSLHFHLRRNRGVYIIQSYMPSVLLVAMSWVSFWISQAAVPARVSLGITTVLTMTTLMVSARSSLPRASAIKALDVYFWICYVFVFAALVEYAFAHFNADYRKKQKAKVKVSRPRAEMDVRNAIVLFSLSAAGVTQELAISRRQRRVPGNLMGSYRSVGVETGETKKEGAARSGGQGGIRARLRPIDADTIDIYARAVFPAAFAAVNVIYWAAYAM
Protocol: as §1

[3] = system: 5XFAD and wild type mice; experiment: Open field test; format: in vivo; settings: 9-month old 5XFAD and wild type mice, 20 mg/kg oral gavage, 45 minutes post dosing; FIG. 2
Protocol: 9-month old 5XFAD transgenic mice (expressing human APP and PSEN1 transgenes with 5 AD-linked mutations) and wild type litermates (C57/B16) were dosed as at 20 mg/kg via oral gavage. The total distance travelled was recorded in an open field chamber 45 minutes post dosing.

[4] = system: 5XFAD and wild type mice; experiment: Forced swim test; format: in vivo; settings: 9-month old 5XFAD and wild type mice, 20 mg/kg oral gavage, 45 minutes post dosing; FIG. 3
Protocol: 9-month old 5XFAD transgenic mice (expressing human APP and PSEN1 transgenes with 5 AD-linked mutations) and wild type litermates (C57/B16) were dosed as at 20 mg/kg via oral gavage. The cognitive and mood behavioral tests were performed 45 minutes post dosing.
The forced swim test is a test for depression-like behavior in rodents. The assay involves observing a mouse stay afloat in a tank of water and monitoring how much time it spends immobile.

[5] = 293T cells transiently expressing α1β2γ2 GABAA receptors, FLIPR, PAM activity, read-out: EC50 in α1β2γ2/293T
[6] = 293T cells transiently expressing α1β2δ GABAA receptors, FLIPR, PAM activity, read-out: EC50 in α1β2δ/293T

| Compound | EC50 [1] | EC50 [2] | EC50 [1, 5] | EC50 [2, 6] | locomotor functions (total distance travelled in open field chamber) [3] | efficacy in forced swim test (time immobile, depression-like behavior) [4] |
| --- | --- | --- | --- | --- | --- | --- |
| C=C1C[C@H]2[C@@H](CC[C@@H]3C[C@](C)(O)CC[C@@H]32)[C@@H]2CC[C@H](C#N)[C@@]12C [Example 1, (3R,5R,8R,9R,10S,13S,14S,17S)-3-hydroxy-3,13-dimethyl-12-methylenehexadecahydro-1H-cyclopenta[a]phenanthrene-17-carbonitrile] | 270 nM | 81 nM |  |  |  |  |
| C=C1C[C@H]2[C@@H](CC[C@@H]3C[C@](C)(O)CC[C@@H]32)[C@@H]2CC[C@H](C(C)=O)[C@@]12C [Example 2, 1-((3R,5R,8R,9R,10S,13S,14S,17S)-3-hydroxy-3,13-dimethyl-12-methylenehexadecahydro-1H-cyclopenta[a]phenanthren-17-yl)ethan-1-one] |  |  | 280 nM | 98 nM |  |  |
| C[C@@]1(O)CC[C@H]2[C@H](CC[C@@H]3[C@@H]2CC(F)(F)[C@]2(C)[C@@H](C#N)CC[C@@H]32)C1 [Example 4, (3R,5R,8R,9R,10S,13S,14S,17S)-12,12-difluoro-3-hydroxy-3,13-dimethylhexadecahydro-1H-cyclopenta[a]phenanthrene-17-carbonitrile] |  |  | 2950 nM | 710 nM |  |  |
| CC(=O)[C@H]1CC[C@H]2[C@@H]3CC[C@@H]4C[C@](C)(O)CC[C@@H]4[C@H]3CC(F)(F)[C@]12C [Example 5, 1-((3R,5R,8R,9R,10S,13S,14S,17S)-12,12-difluoro-3-hydroxy-3,13-dimethylhexadecahydro-1H-cyclopenta[a]phenanthren-17-yl)ethan-1-one] |  |  | 390 nM | 190 nM |  |  |
| C[C@@]1(O)CC[C@H]2[C@H](CC[C@@H]3[C@@H]2CC(F)(F)[C@]2(C)[C@@H](C(=O)Cn4cc(C#N)cn4)CC[C@@H]32)C1 [Example 6, 1-(2-((3R,5R,8R,9R,10S,13S,14S,17S)-12,12-difluoro-3-hydroxy-3,13-dimethylhexadecahydro-1H-cyclopenta[a]phenanthren-17-yl)-2-oxoethyl)-1H-pyrazole-4-carbonitrile] |  |  | 470 nM | 120 nM |  |  |
| C[C@@]1(O)CC[C@H]2[C@H](CC[C@@H]3[C@@H]2CC(F)(F)[C@]2(C)[C@@H](C(=O)Cn4cc(F)cn4)CC[C@@H]32)C1 [Example 7, 1-((3R,5R,8R,9R,10S,13S,14S,17S)-12,12-difluoro-3-hydroxy-3,13-dimethylhexadecahydro-1H-cyclopenta[a]phenanthren-17-yl)-2-(4-fluoro-1H-pyrazol-1-yl)ethan-1-one] |  |  | 740 nM | 390 nM |  |  |
| C[C@@]1(O)CC[C@H]2[C@H](CC[C@@H]3[C@@H]2CC(F)(F)[C@]2(C)[C@@H](C(=O)Cn4ccc(C#N)n4)CC[C@@H]32)C1 [Example 8, 1-(2-((3R,5R,8R,9R,10S,13S,14S,17S)-12,12-difluoro-3-hydroxy-3,13-dimethylhexadecahydro-1H-cyclopenta[a]phenanthren-17-yl)-2-oxoethyl)-1H-pyrazole-3-carbonitrile] |  |  | 630 nM | 250 nM | no interference of the locomotor functions | genotype-specific efficacy |
